Format in all cases: biochemical
What all share (conditions): NI = no inhibition at 100 μg/mL

One experiment has as its target T1, Recombinant human Src (Homo sapiens, UniProt P12931).
T1 construct: made in house; host or cells: baculovirus-insect cell system
As to the kind of experiment: Src tyrosine kinase activity, poly E4Y / 32P-ATP phosphorylation assay.

For another experiment, the target named is Recombinant Csk (Homo sapiens, UniProt P41240). As to the kind of experiment: Csk tyrosine kinase activity, poly E4Y / 32P-ATP phosphorylation assay.
Another experiment concerns the target FGF receptor (FGFr). As to the kind of experiment: FGFr tyrosine kinase activity, poly E4Y / 32P-ATP phosphorylation assay.

The values below come from patent publication US20060004197A1, “Sulfonamide-based compounds as protein tyrosine kinase inhibitors” (priority 2004, published 2006).

T1 sequence (P12931 whole entry): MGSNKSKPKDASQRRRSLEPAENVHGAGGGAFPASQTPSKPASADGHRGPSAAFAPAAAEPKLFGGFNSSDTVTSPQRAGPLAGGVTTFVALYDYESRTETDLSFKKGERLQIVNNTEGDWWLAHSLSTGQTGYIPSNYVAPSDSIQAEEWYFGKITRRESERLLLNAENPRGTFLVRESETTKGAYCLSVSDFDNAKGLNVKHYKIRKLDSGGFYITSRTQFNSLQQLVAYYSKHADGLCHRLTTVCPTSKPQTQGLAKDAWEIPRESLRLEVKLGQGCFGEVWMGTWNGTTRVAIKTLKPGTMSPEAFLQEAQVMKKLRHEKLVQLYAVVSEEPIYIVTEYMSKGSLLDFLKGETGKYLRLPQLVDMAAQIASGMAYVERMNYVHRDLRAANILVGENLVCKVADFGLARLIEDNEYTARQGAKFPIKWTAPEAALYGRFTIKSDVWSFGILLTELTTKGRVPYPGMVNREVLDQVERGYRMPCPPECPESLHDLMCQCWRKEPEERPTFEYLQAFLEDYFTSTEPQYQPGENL
Recombinant Csk, sequence (P41240 whole entry, species assumed): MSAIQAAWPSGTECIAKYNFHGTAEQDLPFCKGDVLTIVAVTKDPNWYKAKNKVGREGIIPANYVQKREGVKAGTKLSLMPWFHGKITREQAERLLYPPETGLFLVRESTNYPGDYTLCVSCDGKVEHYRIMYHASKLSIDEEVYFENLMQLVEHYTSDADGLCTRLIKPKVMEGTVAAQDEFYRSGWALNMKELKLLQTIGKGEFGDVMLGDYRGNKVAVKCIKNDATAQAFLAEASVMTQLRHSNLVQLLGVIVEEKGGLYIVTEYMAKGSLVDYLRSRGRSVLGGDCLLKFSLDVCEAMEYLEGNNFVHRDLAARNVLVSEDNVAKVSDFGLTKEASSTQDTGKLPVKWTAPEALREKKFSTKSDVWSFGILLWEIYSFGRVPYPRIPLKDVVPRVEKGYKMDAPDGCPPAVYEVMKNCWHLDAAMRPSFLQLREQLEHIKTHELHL

With `COc1ccc(Oc2ccc(NS(=O)(=O)c3ccc(OC)cc3)c(NS(=O)(=O)c3ccc(OC)cc3)c2)cc1` [Compound 12k, N-[2-(4-methoxy-benzenesulfonylamino)-4-(4-methoxy-phenoxy)-phenyl]-4-methoxy-benzenesulfonamide], the IC50 (as a rule, the concentration needed to halve the response being measured) at Recombinant human Src (Table 3, Formula II compounds) was found to be 21 µM; on Recombinant Csk (Table 3, Formula II compounds), 88 µM; on FGF receptor (FGFr) (Table 3, Formula II compounds) it was 44 µM.
With `CCCCS(=O)(=O)Nc1ccc(Oc2ccc(OC)cc2)cc1NS(=O)(=O)CCCC` [Compound 12l, butane-1-sulfonic acid [2-(butane-1-sulfonylamino)-4-(4-methoxy-phenoxy)-phenyl]-amide], the IC50 was 40 µM at Recombinant human Src (Table 3, Formula II compounds); greater than 212 µM at Recombinant Csk (Table 3, Formula II compounds); 81 µM at FGF receptor (FGFr) (Table 3, Formula II compounds).
Consider `COc1ccc(Oc2ccc(NS(=O)(=O)c3ccc(OC)c(OC)c3)c(NS(=O)(=O)c3ccc(OC)c(OC)c3)c2)cc1` [Compound 12m, N-[2-(3,4-dimethoxy-benzenesulfonylamino)-4-(4-methoxy-phenoxy)-phenyl]-3,4-dimethoxy-benzenesulfonamide], for which the IC50 was 54 µM at Recombinant human Src (Table 3, Formula II compounds) and greater than 159 µM on Recombinant Csk (Table 3, Formula II compounds). The “IC50 (μM) FGFr” value against FGF receptor (FGFr) (Table 3, Formula II compounds) is on record as “NI (NI = no inhibition at 100 μg/mL)”.
With `COc1ccc(Oc2ccc(NS(=O)(=O)c3ccccc3)c(NS(=O)(=O)c3ccccc3)c2)cc1` [Compound 12n, N-[2-benzenesulfonylamino-4-(4-methoxy-phenoxy)-phenyl]-benzenesulfonamide], the 50% inhibitory concentration (IC50) was 29 µM on Recombinant human Src (Table 3, Formula II compounds); greater than 196 µM on Recombinant Csk (Table 3, Formula II compounds); 24 µM at FGF receptor (FGFr) (Table 3, Formula II compounds).
For `COc1ccc(Oc2ccc(NS(=O)(=O)c3ccc(C(C)(C)C)cc3)c(NS(=O)(=O)c3ccc(C(C)(C)C)cc3)c2)cc1` [Compound 12o, N-[2-(4-t-butyl-benzenesulfonylamino)-4-(4-methoxy-phenoxy)-phenyl]-4-t-butyl-benzenesulfonamide] the same measures were 7.2 µM, greater than 161 µM and 22 µM.
Take `COc1ccc(Oc2ccc(NS(=O)(=O)c3ccc(C)cc3)c(NS(=O)(=O)c3ccc(C)cc3)c2)cc1` [Compound 12p, N-[5-(4-methoxy-phenoxy)-2-(4-toluenesulfonylamino)-phenyl]-4-toluenesulfonamide]: the IC50 on Recombinant human Src (Table 3, Formula II compounds) was 28 µM; on Recombinant Csk (Table 3, Formula II compounds), greater than 186 µM; on FGF receptor (FGFr) (Table 3, Formula II compounds), 26 µM.
On to `COc1ccc(Oc2ccc(NS(=O)(=O)c3c(C)cc(C)cc3C)c(NS(=O)(=O)c3c(C)cc(C)cc3C)c2)cc1` [Compound 12q, N-[4-(4-methoxy-phenoxy)-2-(2,4,6-trimethylbenzenesulfonylamino)-phenyl]-2,4,6-trimethylbenzenesulfonamide], for which the IC50 on Recombinant human Src (Table 3, Formula II compounds) was 39 µM; on Recombinant Csk (Table 3, Formula II compounds), greater than 168 µM; against FGF receptor (FGFr) (Table 3, Formula II compounds), 42 µM.
For `Cc1ccc(S(=O)(=O)Nc2ccc(Oc3ccc(F)cc3)cc2NS(=O)(=O)c2ccc(C)cc2)cc1` [Compound 12t, N-[4-(4-fluoro-phenoxy)-2-(4-toluenesulfonylamino)-phenyl]-4-toluenesulfonamide] the same measures were 19 µM, 105 µM and 40 µM.
In the same order, the values of `Cc1ccc(S(=O)(=O)Nc2ccc(Oc3ccc4ccccc4c3)cc2NS(=O)(=O)c2ccc(C)cc2)cc1` [Compound 12u, N-[4-(naphthalene-2-yloxy)-2-(4-toluenesulfonylamino)-phenyl]-4-toluenesulfonamide] are 12 µM, 104 µM and 38 µM.
In the case of `COc1ccc(NS(=O)(=O)c2ccc(C)cc2)c(NS(=O)(=O)c2ccc(C)cc2)c1` [Compound 12v, N-[4-methoxy-2-(4-toluenesulfonylamino)-phenyl]-4-toluenesulfonamide], the IC50 at Recombinant human Src (Table 3, Formula II compounds) was 69 µM; at Recombinant Csk (Table 3, Formula II compounds) it was greater than 224 µM; against FGF receptor (FGFr) (Table 3, Formula II compounds), 145 µM.
In the same order, the values of `Cc1ccc(S(=O)(=O)Nc2ccc(Oc3ccc(Cl)cc3)cc2NS(=O)(=O)c2ccc(C)cc2)cc1` [Compound 12w, N-[4-(4-chloro-phenoxy)-2-(4-toluenesulfonylamino)-phenyl]-4-toluenesulfonamide] are 5.5 µM, 185 µM and 15.3 µM.
In the same order, the values of `Cc1ccc(S(=O)(=O)Nc2ccc(Oc3cccc(C(=O)O)c3)cc2NS(=O)(=O)c2ccc(C)cc2)cc1` [Compound 12x, N-[4-(3-carboxy-phenoxy)-2-(4-toluenesulfonylamino)-phenyl]-4-toluenesulfonamide] are 9.5 µM, 72 µM and 31 µM.
Take `Cc1ccc(S(=O)(=O)Nc2ccc(Oc3cccc(CC(=O)O)c3)cc2NS(=O)(=O)c2ccc(C)cc2)cc1` [Compound 12y, {3-[3,4-bis(4-toluenesulfonylamino)-phenoxy]-phenyl}-acetic acid]: the IC50 amounted to 11 µM on Recombinant human Src (Table 3, Formula II compounds); 104 µM on Recombinant Csk (Table 3, Formula II compounds); 26 µM on FGF receptor (FGFr) (Table 3, Formula II compounds).
For `Cc1ccc(S(=O)(=O)Nc2ccc(OCc3ccc(Cl)cc3)cc2NS(=O)(=O)c2ccc(C)cc2)cc1` [Compound 15b, N-[4-(4-chloro-benzyloxy)-2-(4-toluenesulfonylamino)-phenyl]-4-toluenesulfonamide], the IC50 on Recombinant human Src (Table 3, Formula II compounds) is 14 µM; on Recombinant Csk (Table 3, Formula II compounds) it was greater than 180 µM; against FGF receptor (FGFr) (Table 3, Formula II compounds), 88 µM.
For `Cc1ccc(S(=O)(=O)Nc2ccc(OCc3cccc(Cl)c3)cc2NS(=O)(=O)c2ccc(C)cc2)cc1` [Compound 15c, N-[4-(3-chloro-benzyloxy)-2-(4-toluenesulfonylamino)-phenyl]-4-toluenesulfonamide] the same measures were 27 µM, greater than 180 µM and 54 µM.
Turning to `Cc1ccc(S(=O)(=O)Nc2ccc(OCc3ccccc3Cl)cc2NS(=O)(=O)c2ccc(C)cc2)cc1` [Compound 15d, N-[4-(2-chloro-benzyloxy)-2-(4-toluenesulfonylamino)-phenyl]-4-toluenesulfonamide], the IC50 on Recombinant human Src (Table 3, Formula II compounds) is 14 µM; on Recombinant Csk (Table 3, Formula II compounds) it was 59 µM; on FGF receptor (FGFr) (Table 3, Formula II compounds), 66 µM.
For `COc1ccc(COc2ccc(NS(=O)(=O)c3ccc(C)cc3)c(NS(=O)(=O)c3ccc(C)cc3)c2)cc1` [Compound 15e, N-[4-(4-methoxy-benzyloxy)-2-(4-toluenesulfonylamino)-phenyl]-4-toluenesulfonamide] the same measures were 15 µM, greater than 181 µM and 132 µM.
`Cc1ccc(S(=O)(=O)Nc2ccc(OCC3CCCCC3)cc2NS(=O)(=O)c2ccc(C)cc2)cc1` [Compound 15f, N-[4-cyclohexylmethoxy-2-(4-toluenesulfonylamino)-phenyl]-4-toluenesulfonamide]: the IC50 at Recombinant human Src (Table 3, Formula II compounds) was 42 µM; at Recombinant Csk (Table 3, Formula II compounds), greater than 189 µM; at FGF receptor (FGFr) (Table 3, Formula II compounds), 91 µM.
Take `Cc1ccc(S(=O)(=O)Nc2ccc(SCc3ccccc3Cl)cc2NS(=O)(=O)c2ccc(C)cc2)cc1` [Compound 15g, N-[4-(2-chloro-benzylsulfanyl)-2-(4-toluenesulfonylamino)-phenyl]-4-toluenesulfonamide]: the IC50 is 11 µM at Recombinant human Src (Table 3, Formula II compounds) and greater than 174 µM at Recombinant Csk (Table 3, Formula II compounds). In addition, the “IC50 (μM) FGFr” value at FGF receptor (FGFr) (Table 3, Formula II compounds) was “NI (NI = no inhibition at 100 μg/mL)”.
`Cc1ccc(S(=O)(=O)Nc2ccc(-n3cccn3)cc2NS(=O)(=O)c2ccc(C)cc2)cc1` [Compound 17a, N-[4-(pyrazol-1-yl)-2-(4-toluenesulfonylamino)-phenyl]-4-toluenesulfonamide]: the IC50 amounted to 46 µM at Recombinant human Src (Table 3, Formula II compounds); 214 µM at Recombinant Csk (Table 3, Formula II compounds); 64 µM on FGF receptor (FGFr) (Table 3, Formula II compounds).
For `Cc1ccc(S(=O)(=O)Nc2ccc(N(C)C)cc2NS(=O)(=O)c2ccc(C)cc2)cc1` [Compound 17c, N-[4-dimethylamino-2-(4-toluenesulfonylamino)-phenyl]-4-toluenesulfonamide] the same measures were 39 µM, greater than 218 µM and 98 µM.
Consider `Cc1ccc(S(=O)(=O)Nc2ccc(-n3ccnc3)cc2NS(=O)(=O)c2ccc(C)cc2)cc1` [Compound 17d, N-[4-(imidazol-1-yl)-2-(4-toluenesulfonylamino)-phenyl]-4-toluenesulfonamide], for which the IC50 on Recombinant human Src (Table 3, Formula II compounds) was 51 µM; on Recombinant Csk (Table 3, Formula II compounds), greater than 207 µM; at FGF receptor (FGFr) (Table 3, Formula II compounds) it was 3.1 µM.
For `Cc1ccc(S(=O)(=O)Nc2ccc(N3CCN(S(=O)(=O)c4ccc(C)cc4)CC3)cc2NS(=O)(=O)c2ccc(C)cc2)cc1` [Compound 17e, N-{2-(4-toluenesulfonylamino)-4-[4-(toluene-4-sulfonyl)-piperazin-1-yl]-phenyl}-4-toluenesulfonamide] the same measures were 19 µM, greater than 153 µM and 21 µM.
For `Cc1ccc(S(=O)(=O)Nc2ccc(N3CCOCC3)cc2NS(=O)(=O)c2ccc(C)cc2)cc1` [Compound 17f, N-[4-(morpholin-4-yl)-2-(4-toluenesulfonylamino)-phenyl]-4-toluenesulfonamide] the same measures were 38 µM, greater than 199 µM and 50 µM.
In the same order, the values of `Cc1ccc(S(=O)(=O)Nc2ccc(-c3ccc(Cl)cc3)cc2NS(=O)(=O)c2ccc(C)cc2)cc1` [Compound 21, N-[4-(4-chloro-phenyl)-2-(4-toluenesulfonylamino)-phenyl]-4-toluenesulfonamide] are 8.6 µM, greater than 190 µM and 23 µM.
For the compound `COc1cccc(NS(=O)(=O)c2ccc(C)cc2)c1NS(=O)(=O)c1ccc(C)cc1` [Compound 22a, N-[3-methoxy-2-(4-toluenesulfonylamino)-phenyl]-4-toluenesulfonamide], the IC50 on Recombinant human Src (Table 3, Formula II compounds) is greater than 224 µM; at Recombinant Csk (Table 3, Formula II compounds), greater than 224 µM. Besides, the “IC50 (μM) FGFr” value against FGF receptor (FGFr) (Table 3, Formula II compounds) is on record as “NI (NI = no inhibition at 100 μg/mL)”.
Consider `Cc1ccc(S(=O)(=O)Nc2cc(N)c(Sc3ccc(Cl)cc3)cc2NS(=O)(=O)c2ccc(C)cc2)cc1` [Compound 23, N-[5-amino-4-(4-chloro-phenylsulfanyl)-2-(4-toluenesulfonylamino)-phenyl]-4-toluenesulfonamide], for which the IC50 on Recombinant human Src (Table 4, Formula III compounds) stood at 58 µM; on Recombinant Csk (Table 4, Formula III compounds), 280 µM; at FGF receptor (FGFr) (Table 4, Formula III compounds), 56 µM.
